#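 All cell lines were grown in 96-well plates and treated with compound for 48 hours. GI50: concentration for 50% inhibition of growth.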 The source made the active and inactive calls. No stated cut-off is given here; in the data, active = GI50 up to about 1.1 µM and inactive = higher.
# Tests used:
# Experiment in all cases: NCI anticancer screen, dose series, 48 h
# [1] = tested on: HCC 2998
# [2] = tested on: KM-20L2
# [3] = tested on: HL-60
# [4] = tested on: SNB-19
# [5] = tested on: UACC-62
# [6] = tested on: SR
# [7] = tested on: A498
# [8] = tested on: HCT-116
# [9] = tested on: HCT-15
# [10] = tested on: SF-295
# [11] = tested on: TK-10
# [12] = tested on: SF-268
# [13] = tested on: SF-539
# [14] = tested on: NCI-H226
# [15] = tested on: CCRF-CEM
# [16] = tested on: M14
# [17] = tested on: HT-29
# [18] = tested on: SK-MEL-28
# [19] = tested on: HOP-92
# [20] = tested on: HOP-18
# [21] = tested on: K562
# [22] = tested on: SN12C
# [23] = tested on: DLD-1
# [24] = tested on: RXF 393
# [25] = tested on: LOX IMVI
# [26] = tested on: COLO 205
# [27] = tested on: OVCAR-4
# [28] = tested on: SW-620
# [29] = tested on: RPMI-8226
# [30] = tested on: IGROV-1
# [31] = tested on: XF498
# [32] = tested on: OVCAR-8
# [33] = tested on: U-251
# [34] = tested on: Malme-3M
# [35] = tested on: NCI-H522
# [36] = tested on: NCI-H23
# [37] = tested on: CAKI-1
# [38] = tested on: A549
# [39] = tested on: HOP-62
# [40] = tested on: ACHN
# [41] = tested on: LXFL 529
# [42] = tested on: OVCAR-5
# [43] = tested on: SK-MEL-5
# [44] = tested on: 786-0
# [45] = tested on: NCI-H460
# [46] = tested on: UACC-257
# [47] = tested on: DMS-273
# [48] = tested on: RXF 631
# [49] = tested on: SNB-78
# [50] = tested on: MOLT-4
# [51] = tested on: M19-MEL
# [52] = tested on: KM12
# [53] = tested on: OVCAR-3
# [54] = tested on: SK-OV-3
# [55] = tested on: UO-31
# [56] = tested on: SK-MEL-2
# [57] = tested on: SNB-75
# [58] = tested on: DMS-114
# [59] = tested on: EKVX
compound,measurement,setting,value
CC(=O)OCC1OC(OCc2ccccc2)C(Br)C(OC(C)=O)C1OC(C)=O (stereo not drawn),GI50,[1],> 100 µM (inactive)
same,GI50,[2],> 100 µM (inactive)
same,GI50,[3],> 100 µM (inactive)
same,GI50,[4],> 100 µM (inactive)
same,GI50,[5],> 100 µM (inactive)
same,GI50,[6],> 100 µM (inactive)
same,GI50,[7],> 100 µM (inactive)
same,GI50,[8],> 100 µM (inactive)
same,GI50,[9],> 100 µM
same,GI50,[10],> 100 µM (inactive)
same,GI50,[11],> 100 µM (inactive)
same,GI50,[12],> 100 µM (inactive)
same,GI50,[13],> 100 µM (inactive)
same,GI50,[14],> 100 µM (inactive)
same,GI50,[15],> 100 µM (inactive)
same,GI50,[16],> 100 µM (inactive)
same,GI50,[17],> 100 µM (inactive)
same,GI50,[18],> 100 µM (inactive)
same,GI50,[19],> 100 µM (inactive)
same,GI50,[20],> 100 µM (inactive)
same,GI50,[21],> 100 µM (inactive)
same,GI50,[22],> 100 µM (inactive)
same,GI50,[23],> 100 µM (inactive)
same,GI50,[24],> 100 µM (inactive)
same,GI50,[25],> 100 µM (inactive)
same,GI50,[26],> 100 µM (inactive)
same,GI50,[27],> 100 µM (inactive)
same,GI50,[28],> 100 µM (inactive)
same,GI50,[29],> 100 µM (inactive)
same,GI50,[30],> 100 µM (inactive)
same,GI50,[31],> 100 µM (inactive)
same,GI50,[32],> 100 µM (inactive)
same,GI50,[33],> 100 µM (inactive)
same,GI50,[34],> 100 µM (inactive)
same,GI50,[35],> 100 µM (inactive)
same,GI50,[36],> 100 µM (inactive)
same,GI50,[37],> 100 µM (inactive)
same,GI50,[38],> 100 µM (inactive)
same,GI50,[39],> 100 µM (inactive)
same,GI50,[40],> 100 µM (inactive)
same,GI50,[41],> 100 µM (inactive)
same,GI50,[42],> 100 µM (inactive)
same,GI50,[43],> 100 µM (inactive)
same,GI50,[44],> 100 µM (inactive)
same,GI50,[45],> 100 µM (inactive)
same,GI50,[46],> 100 µM (inactive)
same,GI50,[47],> 100 µM (inactive)
same,GI50,[48],> 100 µM (inactive)
same,GI50,[49],> 100 µM (inactive)
same,GI50,[50],> 100 µM (inactive)
same,GI50,[51],> 100 µM (inactive)
same,GI50,[52],> 100 µM (inactive)
same,GI50,[53],> 100 µM (inactive)
CCN(CC)C1CC(n2cc(C)c(=O)[nH]c2=O)OC1CO (stereo not drawn),GI50,[1],> 100 µM (inactive)
same,GI50,[3],> 100 µM (inactive)
same,GI50,[5],> 100 µM (inactive)
same,GI50,[6],> 100 µM (inactive)
same,GI50,[7],> 100 µM (inactive)
same,GI50,[54],> 100 µM (inactive)
same,GI50,[8],> 100 µM (inactive)
same,GI50,[55],> 100 µM (inactive)
same,GI50,[12],> 100 µM (inactive)
same,GI50,[13],> 100 µM (inactive)
same,GI50,[14],> 100 µM (inactive)
same,GI50,[15],> 100 µM (inactive)
same,GI50,[16],> 100 µM (inactive)
same,GI50,[18],> 100 µM (inactive)
same,GI50,[19],> 100 µM (inactive)
same,GI50,[21],> 100 µM (inactive)
same,GI50,[22],> 100 µM (inactive)
same,GI50,[23],> 100 µM (inactive)
same,GI50,[26],> 100 µM (inactive)
same,GI50,[27],> 100 µM (inactive)
same,GI50,[29],> 100 µM (inactive)
same,GI50,[30],> 100 µM (inactive)
same,GI50,[31],> 100 µM (inactive)
same,GI50,[34],> 100 µM (inactive)
same,GI50,[35],> 100 µM (inactive)
same,GI50,[36],> 100 µM (inactive)
same,GI50,[37],> 100 µM (inactive)
same,GI50,[39],> 100 µM (inactive)
same,GI50,[41],> 100 µM (inactive)
same,GI50,[56],> 100 µM (inactive)
same,GI50,[44],> 100 µM (inactive)
same,GI50,[45],> 100 µM (inactive)
same,GI50,[57],> 100 µM (inactive)
same,GI50,[47],> 100 µM (inactive)
same,GI50,[48],> 100 µM (inactive)
same,GI50,[58],> 100 µM (inactive)
same,GI50,[49],> 100 µM (inactive)
same,GI50,[50],> 100 µM (inactive)
same,GI50,[51],> 100 µM (inactive)
COC(=O)c1cc2c(nc1C)-c1ccccc1OS2(=O)=O,GI50,[1],> 100 µM (inactive)
same,GI50,[2],> 100 µM (inactive)
same,GI50,[3],> 100 µM (inactive)
same,GI50,[4],81.3 µM (inactive)
same,GI50,[5],> 100 µM (inactive)
same,GI50,[6],> 100 µM (inactive)
same,GI50,[7],> 100 µM (inactive)
same,GI50,[54],> 100 µM (inactive)
same,GI50,[8],> 100 µM (inactive)
same,GI50,[9],> 100 µM
same,GI50,[55],> 100 µM (inactive)
same,GI50,[10],43.1 µM (inactive)
same,GI50,[11],83.2 µM (inactive)
same,GI50,[12],45.5 µM (inactive)
same,GI50,[13],54.5 µM (inactive)
same,GI50,[14],> 100 µM (inactive)
same,GI50,[15],> 100 µM (inactive)
same,GI50,[16],> 100 µM (inactive)
same,GI50,[17],> 100 µM (inactive)
same,GI50,[19],24.6 µM (inactive)
same,GI50,[21],> 100 µM (inactive)
same,GI50,[22],> 100 µM (inactive)
same,GI50,[23],> 100 µM (inactive)
same,GI50,[24],32.6 µM (inactive)
same,GI50,[25],> 100 µM (inactive)
same,GI50,[26],> 100 µM (inactive)
same,GI50,[27],> 100 µM (inactive)
same,GI50,[28],> 100 µM (inactive)
same,GI50,[29],> 100 µM (inactive)
same,GI50,[30],> 100 µM (inactive)
same,GI50,[31],56.6 µM (inactive)
same,GI50,[32],79.8 µM (inactive)
same,GI50,[33],70.1 µM (inactive)
same,GI50,[59],> 100 µM (inactive)
same,GI50,[34],> 100 µM (inactive)
same,GI50,[35],> 100 µM (inactive)
same,GI50,[36],> 100 µM (inactive)
same,GI50,[37],> 100 µM (inactive)
same,GI50,[38],> 100 µM (inactive)
same,GI50,[39],27.5 µM (inactive)
same,GI50,[40],> 100 µM (inactive)
same,GI50,[41],> 100 µM (inactive)
same,GI50,[42],> 100 µM (inactive)
same,GI50,[43],> 100 µM (inactive)
same,GI50,[44],70 µM (inactive)
same,GI50,[45],> 100 µM (inactive)
same,GI50,[57],17.9 µM (inactive)
same,GI50,[46],> 100 µM (inactive)
same,GI50,[47],> 100 µM (inactive)
same,GI50,[48],> 100 µM (inactive)
same,GI50,[58],> 100 µM (inactive)
same,GI50,[49],82.8 µM (inactive)
same,GI50,[50],> 100 µM (inactive)
same,GI50,[51],> 100 µM (inactive)
same,GI50,[52],> 100 µM (inactive)
same,GI50,[53],> 100 µM (inactive)

# From ChEMBL document CHEMBL1201862, “PubChem BioAssay data set” (2004)
